Reference: patent US20200361779A1, “COMPOSITION INCLUDING I2SCN- IONS AND/OR I(SCN)2- IONS” (priority 2015, published 2020)
“Also recorded” adds a separate entry of the source.

Experiment: Degradation of the ions in the concomitant presence of LP (NMR signal at 49 ppm)
Assay type: physicochemical
Conditions: for signal at 49 ppm / wanted ions in concomitant presence of LP: after 48 h
Method: During the production of the wanted ions, if one keeps the enzyme in the mixture, one observes a gradual loss of the wanted ions, and, after 48 h, a total loss of the wanted ions due to enzymatic oxidation of the wanted ions, as illustrated in FIG. 19 in which one observes a decrease in the intensity of the signal as a function of the time of presence of the enzyme in the matrix (solution).

In the case of I2SCN^− and/or I(SCN)2^− ions, the “signal at 49 ppm in concomitant presence of LP” value (3 h of incubation) is reported as “pronounced decrease of the signal”, the “signal at 49 ppm in concomitant presence of LP” value (after 1 h) is reported as “slight decrease” and the “signal at 49 ppm / wanted ions in concomitant presence of LP” value is reported as “total disappearance of the signal; also recorded: complete disappearance”. The “signal at 49 ppm / wanted ions in concomitant presence of LP” value (listed as wanted ions) was “total loss”.
